# Experimental data: paper PMC6199744, “Development of Chemical Proteomics for the Folateome and Analysis of the Kinetoplastid Folateome” (ACS Infectious Diseases, 2018)
# System: L. major lysate proteins
# Assay: Multitargeted bead mixture chemoproteomics, single concentration competition, proteome-wide
# Assay type: binding
# Settings: for fold change / fold change relative to vehicle control: vehicle control = 1; for fold change relative to vehicle control: competition with free ligand
compound,measurement,setting,value
CCCCCCOc1ccc(Cc2cnc(N)nc2N)cc1 [compound 1],fold change,protein LMJF.22.1460 I/6 AUTOANTIGEN-LIKE PROTEIN,0.95
same,fold change vs vehicle control,"protein LMJF.22.1540 ALANYL-TRNA SYNTHETASE, PUTATIVE",0.85
same,fold change vs vehicle control,"protein LMJF.23.0370 […] OXIDASE SUBUNIT 10, PUTATIVE",1.08
same,fold change,protein LMJF.23.0830 NA/H ANTIPORTER-LIKE PROTEIN,0.89
same,fold change,"protein LMJF.23.1020 HYPOTHETICAL PROTEIN, UNKNOWN FUNCTION",0.87
same,fold change,"protein LMJF.23.1220 T-COMPLEX PROTEIN 1, GAMMA SUBUNIT, PUTATIVE",1.03
same,fold change vs vehicle control,protein LMJF.24.0140 ANKYRIN/TPR REPEAT PROTEIN,1.09
same,fold change,protein LMJF.24.0280 DYNEIN INTERMEDIATE-CHAIN-LIKE PROTEIN,0.97
same,fold change,"protein LMJF.24.0770 MALIC ENZYME, PUTATIVE",0.95
same,fold change relative to vehicle control,"protein LMJF.24.1510 IGE-DEPENDENT HISTAMINE-RELEASING FACTOR, PUTATIVE",1.09
same,fold change vs vehicle control,"protein LMJF.24.1630, SUCCINATE DEHYDROGENASE FLAVOPROTEIN, PUTATIVE",0.9
same,fold change vs vehicle control,"protein LMJF.24.1840 LYSOPHOSPHOLIPASE, PUTATIVE",1.07
same,fold change relative to vehicle control,protein LMJF.24.2060 TRANSKETOLASE,0.84
same,fold change,"protein LMJF.24.2250 FATTY-ACID DESATURASE, PUTATIVE",1.09
same,fold change vs vehicle control,"protein LMJF.25.0120 ELECTRON TRANSFER FLAVOPROTEIN, PUTATIVE",1.75
same,fold change vs vehicle control,"protein LMJF.25.0260 DYNEIN LIGHT CHAIN 1, CYTOPLASMIC, PUTATIVE",0.91
same,fold change relative to vehicle control,protein LMJF.25.0910 C[…],1.46
same,fold change vs vehicle control,"protein LMJF.25.1180, ATPASE BETA SUBUNIT, PUTATIVE",1.06
same,fold change,"protein LMJF.25.1610 HYPOTHETICAL PROTEIN, CONSERVED",0.79
same,fold change,"protein LMJF.25.1620 HY[…], CONSERVED",1.11
same,fold change vs vehicle control,protein LMJF.26.1240 HEAT SHOCK PROTEIN 70-RELATED PROTEIN,1.01
same,fold change vs vehicle control,"protein LMJF.26.1710 […] OXIDASE SUBUNIT V, PUTATIVE",1.04
same,fold change vs vehicle control,"protein LMJF.26.1960 HY[…], CONSERVED",1.01
same,fold change vs vehicle control,"protein LMJF.26.2000 HY[…], CONSERVED",1.05
same,fold change vs vehicle control,"protein LMJF.27.0420 RIBOKINASE, PUTATIVE",1.05
same,fold change vs vehicle control,"protein LMJF.27.1060 CYSTEINE DESULFURASE, PUTATIVE",0.97
same,fold change,"protein LMJF.27.1310 ARGINYL-TRNA SYNTHETASE, PUTATIVE",1.05
same,fold change vs vehicle control,"protein LMJF.27.2400 HEAT SHOCK PROTEIN DNAJ, PUTATIVE",0.91
same,fold change vs vehicle control,"protein LMJF.28.0110 […] 3 SUBUNIT, PUTATIVE",1.04
same,fold change vs vehicle control,"protein LMJF.28.0930 HYPOTHETICAL PROTEIN, CONSERVED",1
same,fold change vs vehicle control,"protein LMJF.28.0950 HY[…], CONSERVED",1.07
same,fold change vs vehicle control,"protein LMJF.28.1950 X-PRO, DIPEPTIDYL-PEPTIDASE,SERINE PEPTIDASE, CLAN SC, FAMILY S15, PUTATIVE",0.94
same,fold change relative to vehicle control,"protein LMJF.28.2770 HEAT-SHOCK PROTEIN HSP70, PUTATIVE",1.15
same,fold change,"protein LMJF.29.0060 TRYPTOPHANYL-TRNA SYNTHETASE, PUTATIVE",1
same,fold change,protein LMJF.29.0820 CYSTEINE PEPTIDASE C (CPC),0.78
same,fold change relative to vehicle control,"protein LMJF.29.0850 HIGH MOBILITY GROUP PROTEIN HOMOLOG TDP-1, PUTATIVE",1.77
same,fold change vs vehicle control,protein LMJF.29.1160 TRYPAREDOXIN,1
same,fold change,"protein LMJF.29.1760 PARAFLAGELLAR ROD PROTEIN 1D, PUTATIVE",0.77
same,fold change vs vehicle control,"protein LMJF.29.1780 DIPHTHAMIDE SYNTHESIS PROTEIN, PUTATIVE",0.62
same,fold change vs vehicle control,"protein LMJF.29.2240 AMINOPEPTIDASE, PUTATIVE",0.98
same,fold change,protein LMJF.29.2310 ENOYL-COA HYDRATASE/ISOMERASE-LIKE PROTEIN,0.95
same,fold change,protein LMJF.29.2860 40S RIBOSOMAL PROTEIN S19-LIKE PROTEIN,1.25
same,fold change vs vehicle control,"protein LMJF.30.0850 SURFACE PROTEIN AMASTIN, PUTATIVE",0.97
same,fold change,"protein LMJF.30.1250 PYRIDOXAL KINASE, PUTATIVE",1.06
same,fold change,"protein LMJF.30.2580 RETICULON DOMAIN PROTEIN, 22 KDA POTENTIALLY AGGRAVATING PROTEIN (PAPLE22)",1.3
same,fold change vs vehicle control,protein LMJF.30.3190 3-HYDROXY-3-METHYLGLUTARYL-COA REDUCTASE,0.77
same,fold change vs vehicle control,protein LMJF.30.3520 S-ADENOSYL[…],1.09
same,fold change vs vehicle control,"protein LMJF.31.0440 CYTOSKELETON-[…] CAP5 5, PUTATIVE",0.82
same,fold change,"protein LMJF.31.1130 N-ACYL-L-AMINO ACID AMIDOHYDROLASE, PUTATIVE",0.74
same,fold change vs vehicle control,protein LMJF.31.1640 THIOLASE PROTEIN-LIKE PROTEIN,1.14
same,fold change,protein LMJF.31.1800 AMINO ACID PERMEASE,1.07
same,fold change,"protein LMJF.31.2250 3,2-TRANS-ENOYL-COA ISOMERASE, MIT[…], PUTATIVE",0.85
same,fold change vs vehicle control,"protein LMJF.31.2790 ADP-RI[…], PUTATIVE",1.12
same,fold change,protein LMJF.31.3130 METHYLCROTONOYL-COA CARBOXYLASE BIOTINYLATED SUBUNITPROTEIN-LIKE PROTEIN,0.91
same,fold change,"protein LMJF.32.0010 HYPOTHETICAL PROTEIN, CONSERVED",0.92
same,fold change vs vehicle control,"protein LMJF.32.0400 ATP-DEPENDENT RNA HELICASE, PUTATIVE",1
same,fold change vs vehicle control,"protein LMJF.32.0520 PROFILIN, PUTATIVE",0.98
same,fold change,"protein LMJF.32.1000 CHAPERONIN CONTAINING T-COMPLEX PROTEIN, PUTATIVE",0.99
same,fold change vs vehicle control,"protein LMJF.32.3010 HY[…], CONSERVED,LEUCINE-RICH REPEAT PROTEIN, PUTATIVE",1.06
same,fold change vs vehicle control,protein LMJF.32.3870 MYOSIN XXI,0.77
same,fold change vs vehicle control,"protein LMJF.33.0890, HYPOTHETICAL PROTEIN, CONSERVED",1.1
same,fold change vs vehicle control,"protein LMJF.33.1070 HYPOTHETICAL PROTEIN, UNKNOWN FUNCTION",0.91
same,fold change,"protein LMJF.33.1330 CYSTEINE CONJUGATE BETA-LYASE, AMINOTRANSFERASE- LIKE PROTEIN",1.04
same,fold change,"protein LMJF.33.1610 PEPTIDASE M20/M25/M40, PUTATIVE",0.82
same,fold change relative to vehicle control,"protein LMJF.33.1630 CYCLOPHILIN 4, PUTATIVE",1.08
same,fold change vs vehicle control,"protein LMJF.33.2300 UDP-GLC 4'-EPIMERASE, PUTATIVE",1.07
same,fold change vs vehicle control,"protein LMJF.33.2390 HEAT SHOCK PROTEIN, PUTATIVE",1.41
same,fold change,"protein LMJF.33.2410 HYPOTHETICAL PROTEIN, CONSERVED",0.95
same,fold change,"protein LMJF.33.3150 40S RIBOSOMAL PROTEIN S13, PUTATIVE",1.11
same,fold change,"protein LMJF.34.3500 RUVB-LIKE 1 DNA HELICASE, PUTATIVE",0.93
same,fold change,"protein LMJF.34.3670 VACUOLAR ATP SYNTHASE CATALYTIC SUBUNIT A, PUTATIVE",1.02
same,fold change,protein LMJF.34.3740 SERINE PALMITOYLTRANSFERASE-LIKE PROTEIN,0.91
same,fold change,"protein LMJF.34.4120 HYPOTHETICAL PROTEIN, CONSERVED",0.82
same,fold change vs vehicle control,"protein LMJF.34.4370 20S PROTEASOME BETA 7 SUBUNIT, (PUTATIVE)",0.95
same,fold change,"protein LMJF.35.0370 ATP-DEPENDENT DEAD-BOX RNA HELICASE, PUTATIVE",1.01
same,fold change vs vehicle control,"protein LMJF.35.1380, MITOCHONDRIAL PROCESSING PEPTIDASE, BETA SUBUNIT, PUTATIVE",0.97
same,fold change vs vehicle control,"protein LMJF.35.1410 THREONYL-TRNA SYNTHETASE, PUTATIVE",0.94
same,fold change vs vehicle control,"protein LMJF.35.1720 CYCLOPHILIN 14, PUTATIVE",1.02
same,fold change,"protein LMJF.35.2500 HYPOTHETICAL PROTEIN, CONSERVED",0.72
same,fold change,"protein LMJF.35.2730 ACYL-COA DEHYDROGENASE, PUTATIVE",0.86
same,fold change relative to vehicle control,"protein LMJF.35.3010 […],TRYPANOTHIONE-DEPENDENT […]",1.13
same,fold change vs vehicle control,"protein LMJF.35.3100 ATP-DEPENDENT RNA HELICASE, PUTATIVE",0.99
same,fold change vs vehicle control,protein LMJF.35.3340 6-phosphogluconate dehydrogenase,1.08
same,fold change,"protein LMJF.35.3700 GIM5A PROTEIN, PUTATIVE,GLYCOSOMAL MEMBRANE PROTEIN",0.94
same,fold change vs vehicle control,"protein LMJF.35.3840, […] 2 SUBUNIT, PUTATIVE",1.01
same,fold change vs vehicle control,"protein LMJF.35.3860 T-COMPLEX PROTEIN 1, ETA SUBUNIT, PUTATIVE",0.99
same,fold change,"protein LMJF.35.4550 HYPOTHETICAL PROTEIN, CONSERVED",0.97
same,fold change,protein LMJF.35.4770 CYCLOPHILIN 40,1.17
same,fold change,"protein LMJF.35.4850 PROTEASOME ALPHA 1 SUBUNIT, PUTATIVE",0.91
same,fold change,"protein LMJF.35.4860 HYPOTHETICAL PROTEIN, CONSERVED",0.85
same,fold change relative to vehicle control,"protein LMJF.35.5330 ISOPENTENYL-DIPHOSPHATE DELTA-ISOMERASE, PUTATIVE,ISOMERASE, PUTATIVE",1.62
same,fold change vs vehicle control,protein LMJF.36.0180 […] 2,1.03
same,fold change vs vehicle control,"protein LMJF.36.0620 HY[…], CONSERVED",1.34
same,fold change vs vehicle control,"protein LMJF.36.0990 40S RIBOSOMAL PROTEIN S10, PUTATIVE",1.1
same,fold change vs vehicle control,"protein LMJF.36.2020 CHAPERONIN HSP60, MITOCHONDRIAL PRECURSOR",0.95
same,fold change vs vehicle control,"protein LMJF.36.3460 HYPOTHETICAL PROTEIN, CONSERVED",0.82
same,fold change,"protein LMJF.36.3760 60S RIBOSOMAL PROTEIN L10A, PUTATIVE",1.26
same,fold change vs vehicle control,"protein LMJF.36.3840 GLYCYL TRNA SYNTHETASE, PUTATIVE",0.85
same,fold change vs vehicle control,"protein LMJF.36.4170 OXIDOREDUCTASE, PUTATIVE",0.84
same,fold change vs vehicle control,"protein LMJF.36.5010 40S RIBOSOMAL PROTEIN SA, PUTATIVE",1.09
same,fold change,"protein LMJF.36.5390 PHOSPHORIBOSYLPYROPHOSPHATE SYNTHETASE, PUTATIVE",0.86
same,fold change vs vehicle control,"protein LMJF.36.5620 ISOLEUCYL-TRNA SYNTHETASE, PUTATIVE",0.97
same,fold change vs vehicle control,protein LMJF.36.6430 PROTEIN TRANSPORT PROTEIN SEC23-LIKE PROTEIN,0.85
same,fold change,"protein LMJF.36.6760 HY[…], CONSERVED",1.01
same,fold change vs vehicle control,"protein LMJF.36.6910 T-COMPLEX PROTEIN 1, THETA SUBUNIT, PUTATIVE",1
same,fold change vs vehicle control,protein LMJF.36.6940 disulfide isomerase PDI,1.14
same,fold change vs vehicle control,"protein LMJF.[…] […] EXOPOLYPHOSPHATASE, PUTATIVE",1.19
